In patent US10562857B2 (AFASCI, Inc., priority 2015, dated 2020):
“Also recorded” adds a separate entry of the source.

Legend:
[1] = tested on: formalin-induced inflammation in mice; assay: Formalin-induced pain in mice; type: in vivo, mouse; conditions: 30 mg/kg I.P. 30 min before 10% formalin
Method: FIG. 8. Effects of EXAMPLE-128 (30 mg/kg, I.P.) or vehicle on formalin-induced inflammation in male mice (C57BL/6, ˜3 months old; n=8 mice per group). The test compound was I.P. administered 30 min prior to local injection of 10% formalin into the left hindpaw (10 μl). Time spent in grooming, licking or biting the injury paw was manually scored immediately following formalin injection in 5-min time bin for 45 min.
Formalin-induced biphasic response, nociception followed by inflammatory pain in a mouse hindpaw, is an acute pain and chemical-induced inflammatory pain model. The EXAMPLE-128 was tested in this model. Mice (C57BL/6, male, ˜2 months old; n=8 mice per treatment group) received a 10 μl intraplantar injection of 10% formalin in saline into the left hindpaw. Pain response scoring includes counts per episode of time of reactions to the pain stimulus as indicated by licks, twitches, raising or shaking of the injected paw.

[2] = tested on: Ames microsomemutagenicity assay; assay: Ames microsome mutagenicity assay; type: cell-based
From the text: Moreover, compounds useful in therapeutic formulations may be further screened for undesired side effect activities by utilizing large ancillary pharmacology panel screens, for example, SafetyScreen 44 and the Ames microsomemutagenicity assay (Eurofins-Cerep, US and France).

SNI rats = assay: Spared nerve injury (SNI) rats, Hargreaves thermal test; type: in vivo, rat; conditions: 30 mg/kg, 1 mL I.P.
Method: FIG. 3A. Spared Nerve Injury (SNI) rats' left hindpaw withdrawal latencies in response to thermal stimulation (Hargreaves test). Each SNI rat received either EXAMPLE-106, 107, or 115, (each 30 mg/kg, 1 mL I.P.), or vehicle (2% DMSO in 0.5% HPC). Sham rats also received vehicle I.P. injections. […] 40 seconds were cutoff in order to prevent tissue damage. The sham-vehicle serves as a positive control (n=8 per treatment group).
In additional examples shown here, the analgesic effects were further evaluated in another rat species. Baseline thermal and mechanical thresholds of male rats (Sprague-Dawley rats, 275 g-325 g, Harlan) were taken prior to surgery; baseline thresholds were measured on the rats' left hindpaws. Thirty-two rats underwent the SNI surgery on their left hind leg; 8 rats underwent surgery without injury of the nerves as a sham group. Two weeks post-surgery, the thermal thresholds of each rat were reassessed. […] Each rat received either EXAMPLE-106, -107, -115 (each 30 mg/kg, 1 mL I.P.), or vehicle (2% DMSO in 0.5% HPC). Thermal and mechanical thresholds were measured at 1, 2, 3, 4, 5, 6, 7, and 8 hours post-treatment/dosing. […] The drug actions started around 1 hour post-injection and peaked between 2 and 3 hours, and the drug effects gradually declined to pre-treatment levels over 6-7 hours (FIGS. 3A and B).

[3] = tested on: taxol-induced neuropathic pain model in mice; assay: Taxol-induced neuropathic pain in mice, von Frey test; type: in vivo, mouse; conditions: taxol 4 mg/kg I.P., 3, 10 or 30 mg/kg I.P.
Method: FIG. 6A. Effects of EXAMPLE-115 on taxol (4 mg/kg, I.P.)-induced neuropathic pain model in mice. Mechanical pain thresholds of left hindpaws were assessed using von Frey monofilament test. Each mouse received either EXAMPLE-115 (3, 10 or 30 mg/kg, I.P.) or vehicle (2% DMSO in 0.5% HPC, I.P.; n=8 per group). Injection of taxol lowered mechanical pain thresholds.
FIG. 6B. Effects of EXAMPLE-123 on taxol (4 mg/kg, I.P.)-induced neuropathic pain model in a separate cohort of mice. Mechanical pain thresholds of left hindpaws were assessed using von Frey monofilament test. Each mouse received either EXAMPLE-123 (30 mg/kg, I.P., n=8) or vehicle (2% DMSO in 0.5% HPC, I.P.).
Chemotherapy-induced painful neuropathy is a common side effect associated with chronic treatment with Taxol (paclitaxel) or other anticancer drugs based on cytotoxicity. Taxol or paclitaxel is one of the most popular drugs used for the treatment of various cancers (Chaudhry et al., 1994). The chemotherapy-induced peripheral neuropathy manifests as chronic hyperalgesia and other sensory abnormalities. Taxol (Sigma, 4.0 mg/kg, I.P.) was dissolved in saline containing 5% DMSO (vehicle) and injected to mice (freshly prepared before injection).

CFA mice = assay: Complete Freund's Adjuvant (CFA)-induced inflammatory pain in mice, von Frey test; type: in vivo, mouse; conditions: 30 mg/kg I.P.
Method: FIG. 7. Effects of EXAMPLE-96, 107 or 115 (each 30 mg/kg, I.P.) or gabapentin (as a benchmark, 100 mg/kg, I.P) on Complete Freund's Adjuvant (CFA)-induced inflammation in male, mice (C57BL/6, ˜2 months old; n=8 mice per group). Mechanical pain threshold assessment of CFA mice's left hindpaws were measured using von Frey monofilament test at 0.5, 1, 2, 4, and 6 hours after treatment.
Because knockout or antisense knockdown of the Cav3.2 isoform produces analgesic effects in neuropathic pain as well as in inflammatory pain in mice (Choi et al., 2007), we used the Complete Freund adjuvant (CFA)-inflammatory pain in mice to investigate the drug effects. EXAMPLE-96, -115, and -107 (each at 30 mg/kg, I.P.) and a reference gabapentin (100 mg/kg, I.P.) was individually administered to mice that had CFA-induced inflammation on their left hindpaws.

[4] = tested on: incision-induced pain in mice; assay: Incision-induced acute pain in mice, von Frey test; type: in vivo, mouse; conditions: 30 mg/kg I.P.
Method: FIG. 9. Effects of EXAMPLE-116, -118 or ML218 (a reference compound) on incision-induced acute pain in mice (C57BL/6, male, ˜2 months old; n=8 mice per treatment group). Mechanical pain threshold assessment (von Frey monofilament test) of the mice's incision left hindpaws. Each mouse received either EXAMPLE-116, -118, or ML218 (as a reference compound, each 30 mg/kg, I.P.) or vehicle (2% DMSO in 0.5% HPC, I.P.). Mechanical pain responses were measured at 0.5, 1, 2, 4, and 5 hours after treatment.
To further confirm the Cav3 modulator effects on acute pain and neurogenic inflammatory pain, an incision-pain mode in mice was used. Postoperative pain model induced by a deep incision in the hindpaw produces robust mechanical allodynia (Pogatzki et al., 2003). Mechanical pain thresholds were assessed using von Frey monofilament test of the incised left hindpaws. Each mouse received either EXAMPLE-116, -118, ML218 (as a reference compound, each 30 mg/kg, I.P.) or vehicle (2% DMSO in 0.5% HPC, I.P., n=8 mice per treatment group). Mechanical pain responses were measured at 0.5, 1, 2, 4, and 5 hours after treatment.

CC(C)(C)NC(=O)CN1CCC2(CC1)CC2NC(=O)c1cc(F)cc(Cl)c1 (single isomer, unassigned) [Example 128, (S)—N-(6-(2-(tert-Butylamino)-2-oxoethyl)-6-azaspiro[2.5]octan-1-yl)-3-chloro-5-fluorobenzamide or (R)—N-(6-(2-(tert-Butylamino)-2-oxoethyl)-6-azaspiro[2.5]octan-1-yl)-3-chloro-5-fluorobenzamide]
formalin-induced biphasic pain response [1]: produced inhibition of both phases | mutagenicity [2]: lack of mutagenicity

O=C(Nc1nnc(-c2ccccc2)o1)c1ccc(Cl)s1 [Example 115, 5-Chloro-N-(5-phenyl-1,3,4-oxadiazol-2-yl)thiophene-2-carboxamide]
left hindpaw withdrawal latency to thermal stimulation (hyperalgesia) (SNI rats): elevated both thermal and mechanical thresholds; also recorded: reduced hyperalgesia | mechanical pain threshold, taxol-induced neuropathic pain [3]: produced significant effects on Taxol-induced pain compared to vehicle in a dose-dependent manner; also recorded: reversed the taxol-induced neuropathic pain in a dose-dependent manner | mechanical pain threshold, CFA-induced inflammation (CFA mice): showed an analgesic effect in mechanical pain

CC(C)(C)CCN1C[C@@H]2[C@@H](CNC(=O)c3cc(Cl)cc(Cl)c3)[C@@H]2C1 [ML218, 3,5-Dichloro-N-[[(1α,5α,6-exo,6α)-3-(3,3-dimethylbutyl)-3-azabicyclo[3.1.0]hex-6-yl]methyl]benzamide, reference compound]
mechanical pain threshold, incision-induced pain [4]: inhibited incision-induced inflammatory pain
